# Measurements: article PMC3988029, “A Trisubstituted Benzimidazole Cell Division Inhibitor with Efficacy against Mycobacterium tuberculosis” (PLoS ONE, 2014)
# Assays:
# M. tuberculosis = type: cell-based; conditions: for Enhancement of activity against M. tuberculosis in the presence of the partner drug: checkerboard, SB-P17G-A20 with rifampicin
# [1] = test system: M. tuberculosis clinical isolates; experiment: microbe, parasite or virus in culture; type: cell-based; conditions: Mycobacterium tuberculosis, read-out: MIC against different clinical strains of M. tuberculosis
# M. tuberculosis H37Rv = type: cell-based, Mycobacterium tuberculosis; conditions: 2×10^9 cells plated on 1.6 µg/mL, 10 times MIC
Compound,Enhancement of activity against M. tuberculosis in the presence of the partner drug (M. tuberculosis),ΣFIC (M. tuberculosis; rifampicin in combination with SB-P17G-A20),MIC [1] [µg/mL],Spontaneous resistant mutants (M. tuberculosis H37Rv)
CN(C)c1cc2[nH]c(C3CCCCC3)nc2cc1NC(=O)c1ccc(OC(F)(F)F)cc1 [SB-P17G-A20],2–4 fold,0.75,0.16,no single resistant colony was obtained
"CO[C@H]1/C=C/O[C@@]2(C)Oc3c(C)c(O)c4c(O)c(c(/C=N/N5CCN(C)CC5)c(O)c4c3C2=O)NC(=O)/C(C)=C\C=C\[C@H](C)[C@H](O)[C@@H](C)[C@@H](O)[C@@H](C)[C@H](OC(C)=O)[C@@H]1C [rifampicin, reference compound]",2 fold,–,–,–
